The source made the active and inactive calls. The rule behind the calls is not given here.
Target: Serine/threonine-protein phosphatase PP1-beta catalytic subunit (Homo sapiens) (UniProt P62140)
Assay: PubChem AID 463226
Conditions: purified PP1, 33P-phosphohistone dephosphorylation, scintillation

Chain of Serine/threonine-protein phosphatase PP1-beta catalytic subunit (Homo sapiens) (P62140 whole entry, looked up): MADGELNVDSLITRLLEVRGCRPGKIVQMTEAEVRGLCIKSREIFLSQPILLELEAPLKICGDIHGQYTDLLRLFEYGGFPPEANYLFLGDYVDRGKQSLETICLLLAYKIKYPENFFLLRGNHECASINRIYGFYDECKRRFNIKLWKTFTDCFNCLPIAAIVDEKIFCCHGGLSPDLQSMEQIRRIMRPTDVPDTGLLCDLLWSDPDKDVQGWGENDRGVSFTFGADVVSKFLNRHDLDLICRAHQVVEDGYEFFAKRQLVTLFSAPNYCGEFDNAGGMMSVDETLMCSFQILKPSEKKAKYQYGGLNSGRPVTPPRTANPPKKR

| SMILES | IC50 |
| --- | --- |
| O=C(O)c1n[nH]nc1-c1ccccc1 | inactive |
| O=C(O)C1C2CCC(O2)C1C(=O)NC1CCCCC1 (configuration not stated) | 23.2 µM |

From PubChem BioAssay AID463226 (The Scripps Research Institute Molecular Screening Center, 2010)
